Counter-ions that a name gives are not always drawn. Like-named read-outs stand apart in the source and are kept apart here.
Experiments:
iv L1210 leukemia = conditions: iv L1210 (10^6 cells)
Description: Animals were inoculated iv with 10^6 cells. Increase in lifespan (ILS) is based on median survival time of groups of 6 mice relative to untreated controls.
The protocols utilized for the evaluation of the antitumor activity of Formula (I) compounds are well established and widely utilized by those skilled in the art of assessing the activity of drugs in preclinical tumor models. These studies generally follow the protocols established by the National Cancer Institute as described by Geran et al., Cancer Chemotherapy Reports, Part 3, Vol. 3, 1-103, 1972.
Tumors used in these studies P388 leukemia, L1210 leukemia and Lewis lung carcinoma--are maintained by serial transplantation in syngeneic strains of mice, DBA/2 for the leukemias and C57B1/6 for Lewis lung carcinoma. The leukemias are serially transplanted i.p. as ascites cell suspensions while the Lewis lung carcinoma is serially transplanted as a s.c. solid tumor.
For therapeutic trials, tumors were aseptically removed from donor mice and prepared as suspensions for implantation into test animals which for each tumor are syngeneic female F1 hybrid B6D2F1 mice (C57B1/6×DBA/2). The inoculum level varies with the type of tumor: P388 leukemia is inoculated at 10^6 cells per mouse, L1210 leukemia at 10^5 or 10^6 cells per mouse, and Lewis lung carcinoma at 0.25 ml of a 10 percent (w:v) brei. […] After tumor inoculation, mice are randomized to treatment groups of 6 to 8 mice each. In each experiment, there are three groups of untreated control mice.
Drugs are dissolved or suspended in appropriate aqueous vehicles and given i.p. or i.v. on various treatment schedules over a range of dosage levels. Animals are housed in shoebox cages and monitored daily for mortality for 30 (L1210), 45 (P388) or 60 (Lewis lung) days.

L1210 leukemia cells = test: cells; assay type: cell-based, mouse; conditions: Mus musculus, L1210, read-out: In Vitro Activity IC50
Description: Cells were exposed continuously upon cloning into medium containing 0.2 percent Noble agar. After incubation at 37° C. in a CO2 incubator for 3 days, colonies were stained with viable cell specific formazan stain and, 24 hours later, were enumerated by a colony counter (Biotran II, New Brunswick Scientific Co., Edison, N.J.) adjusted to identify colonies of more than 50 cells. The concentration which reduced cloning efficiency by 50 percent IC50) was determined by interpolation.

[1] = ip-implanted L1210 leukemia in mice; conditions: mouse, in vivo, ip;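 further: each mouse received 10^6 L1210 cells intraperitoneally, with drug treatment also given by the i.p. route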
Description: (§1) For in vivo studies L1210 cells were implanted i.p. (10^6 per mouse)
(§2) and drugs were administered i.p. on Days 1 and 5. Increase in lifespan
(§3) (ILS) was based on median survival time of groups of 6 mice treated at th
maximally tolerated dose of the drugs.

ip L1210 leukemia = test: ip-implanted L1210 leukemia in mice;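 further: each mouse received 10^6 L1210 cells intraperitoneally, with drug treatment also given by the i.p. route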; conditions: ip L1210 (10^6 cells); drug i.p. Days 1 and 5 at maximally tolerated dose
Description: as §1, §2, §3
maximally tolerated dose of the drugs.

P388/Doxorubicin = test: ip P388/Doxorubicin multidrug resistant subline in mice; conditions: for ILS / NCK (net tumor cell kill): P388/Doxorubicin, ip, Days 1 and 5; for sensitivity / resistance of subline: P388/doxorubicin in mice
Description: (§4) Increase in lifespan (ILS) is based on median survival time of groups of 6 mice. Net tumor cell kill (NCK) is calculated from median survival time by standard methods, since survival time is a linear function of the log tumor cell burden.
(§5) For the leukemias, these tumors are maintained in DBA/2 mice. […] The leukemias and the M5076 sarcoma are serially transplanted i.p. as ascites cell suspensions while the B16 melanoma lines and the colon carcinoma 26 are serially transplanted as s.c. solid tumors.
(§6) For therapeutic trials, tumors are aseptically removed from donor mice and prepared as suspensions for implantation ip into test animals. […] The test animals for the other tumor models are syngeneic female F1 hybrid B6D2F1 mice (C57B1/6 x DBA/2). The inoculum level varies with the type of tumor: P388 leukemia is inoculated at 10^6 cells per mouse, L1210 leukemia at 10^5 or 10^6 cells per mouse, M5076 sarcoma at 5×10^6 cells per mouse. […] After tumor inoculation, mice randomized to treatment groups comprised of 6-8 mice each. In each experiment, there are three groups of untreated control mice. Drugs are dissolved or suspended in appropriate aqueous vehicles and given by a variety of routes and schedules of administration over a range of dose levels. Animals are housed in shoebox cages and are monitored daily for mortality for 30 (L1210), 45 (P388) or 60 (B16, M5076, colon 26) days.

ip P388 leukemia = conditions: ip
P388/Mitoxantrone = test: ip P388/Mitoxantrone multidrug resistant subline in mice; conditions: for ILS / NCK (net tumor cell kill): P388/Mitoxantrone, ip, Days 1 and 5
Description: as §4, §5, §6

[2] = ip P388 (10^6 cells), 29 mg/kg, Days 1 & 5

CC[C@@]1(O)C(=O)OCc2c1cc1n(c2=O)Cc2cc3c(CN(C)C)c(O)ccc3nc2-1 [1S (dihydrochloride salt)]
ILS (iv L1210 leukemia; 5.4 mg/kg, Days 1 & 5, route ip in table head (iv), Dihydrochloride Salt): 50% | ILS (iv L1210 leukemia; 9 mg/kg, Days 1 & 5, route ip in table head (iv), Dihydrochloride Salt): 83% | ILS (iv L1210 leukemia; 15 mg/kg, Days 1 & 5, route ip in table head (iv in b213), Dihydrochloride Salt): 133% | ILS (iv L1210 leukemia; 15 mg/kg, Days 1 & 5, route ip in table head (iv in b213), listed as dihydrochloride, Dihydrochloride Salt): 133%

CC[C@@]1(O)C(=O)OCc2c1cc1n(c2=O)Cc2cc3c(CN(C)C)c(O)ccc3nc2-1 [1S (hydrochloride salt)]
ILS (iv L1210 leukemia; 3.2 mg/kg, Days 1 & 5, route ip in table head (iv)): 50% | ILS (iv L1210 leukemia; 5.4 mg/kg, Days 1 & 5, route ip in table head (iv), Monohydrochloride Salt): 92% | ILS (iv L1210 leukemia; 9 mg/kg, Days 1 & 5, route ip in table head (iv), Monohydrochloride Salt): 125% | ILS (iv L1210 leukemia; 15 mg/kg, Days 1 & 5, route ip in table head (iv in b213), Monohydrochloride Salt): 175% | ILS (iv L1210 leukemia; 15 mg/kg, Days 1 & 5, route ip in table head (iv in b213), listed as hydrochloride, Monohydrochloride Salt): 175% | ILS (iv L1210 leukemia; 25 mg/kg, Days 1 & 5, route ip in table head (iv)): toxic

CC[C@@]1(O)C(=O)OCc2c1cc1n(c2=O)Cc2cc3c(CN(C)c4ccccc4)c(O)ccc3nc2-1 [9S]
IC50 (L1210 leukemia cells): 69 nM | MTD [1]: 42 mg/kg | In Vivo Antitumor Activity ILS (increase in lifespan) (ip L1210 leukemia): 112%

CC[C@@]1(O)C(=O)OCc2c1cc1n(c2=O)Cc2cc3c(CN4CCN(C)CC4)c(O)ccc3nc2-1 [6S]
IC50 (L1210 leukemia cells): 72 nM | MTD [1]: 75 mg/kg | In Vivo Antitumor Activity ILS (increase in lifespan) (ip L1210 leukemia): > 200%

CC[C@@]1(O)C(=O)OCc2c1cc1n(c2=O)Cc2cc3c(C=O)c(O)ccc3nc2-1 [2S, (20 S) 9-Formyl-10-hydroxycamptothecin]
IC50 (L1210 leukemia cells): 260 nM | MTD [1]: 42 mg/kg | In Vivo Antitumor Activity ILS (increase in lifespan) (ip L1210 leukemia): 75%

CC[C@@]1(O)C(=O)OCc2c1cc1n(c2=O)Cc2cc3c(CN(C)C)cccc3nc2-1 [15S, (20S) 9-Dimethylaminomethylcamptothecin]
IC50 (L1210 leukemia cells): 65 nM | MTD [1]: 15 mg/kg | In Vivo Antitumor Activity ILS (increase in lifespan) (ip L1210 leukemia): 88%

CC[C@@]1(O)C(=O)OCc2c1cc1n(c2=O)Cc2cc3cc(C=O)ccc3nc2-1 [19S, (20S) 10-Formylcamptothecin]
IC50 (L1210 leukemia cells): 62 nM

CC[C@@]1(O)C(=O)OCc2c1cc1n(c2=O)Cc2cc3c(CNCCN(C)C)c(O)ccc3nc2-1 [12S, (20 S) 9-N,N-Dimethylaminoethylaminomethyl-10-hydroxycamptothecin Dihydrochloride Salt]
IC50 (L1210 leukemia cells): 49 nM | MTD [1]: > 42 mg/kg | In Vivo Antitumor Activity ILS (increase in lifespan) (ip L1210 leukemia): 94%

CC[C@@]1(O)C(=O)OCc2c1cc1n(c2=O)Cc2cc3cc(CN)ccc3nc2-1 [20S, (20S) 10-Aminomethylcamptothecin Acetate salt]
IC50 (L1210 leukemia cells): 90 nM | MTD [1]: 92 mg/kg | In Vivo Antitumor Activity ILS (increase in lifespan) (ip L1210 leukemia): 112%

CCOCc1c(O)ccc2nc3c(cc12)Cn1c-3cc2c(c1=O)COC(=O)[C@]2(O)CC [10S, (20 S) 9-Ethoxymethyl-10-hydroxycamptothecin]
IC50 (L1210 leukemia cells): 48 nM | MTD [1]: 25 mg/kg | In Vivo Antitumor Activity ILS (increase in lifespan) (ip L1210 leukemia): 131%

CC[C@@]1(O)C(=O)OCc2c1cc1n(c2=O)Cc2cc3c(CNC4CCCCC4)c(O)ccc3nc2-1 [11S]
IC50 (L1210 leukemia cells): 56 nM | MTD [1]: 25 mg/kg | In Vivo Antitumor Activity ILS (increase in lifespan) (ip L1210 leukemia): > 200%

CC[C@@]1(O)C(=O)OCc2c1cc1n(c2=O)Cc2cc3c(CNC4CC4)c(O)ccc3nc2-1 [8S]
IC50 (L1210 leukemia cells): 130 nM | MTD [1]: 25 mg/kg | In Vivo Antitumor Activity ILS (increase in lifespan) (ip L1210 leukemia): 131%

CO[C@@]12[C@H](COC(N)=O)C3=C(C(=O)C(C)=C(N)C3=O)N1C[C@@H]1N[C@@H]12 [Mitomycin C]
ILS (P388/Doxorubicin; 1.0 mg/kg): 29% | NCK (net tumor cell kill) (P388/Doxorubicin; 1.0 mg/kg): 0 log | ILS (P388/Doxorubicin; 1.6 mg/kg): 48% | NCK (net tumor cell kill) (P388/Doxorubicin; 1.6 mg/kg): 0.3 log | ILS (P388/Doxorubicin; 2.7 mg/kg): 52% | NCK (net tumor cell kill) (P388/Doxorubicin; 2.7 mg/kg): 0.5 log | ILS (P388/Doxorubicin; 4.5 mg/kg): 62% | NCK (net tumor cell kill) (P388/Doxorubicin; 4.5 mg/kg): 1.0 log | ILS (P388/Doxorubicin; 7.5 mg/kg): 52% | NCK (net tumor cell kill) (P388/Doxorubicin; 7.5 mg/kg): 0.5 log | sensitivity / resistance of subline (P388/Doxorubicin): resistant | ILS (ip P388 leukemia; P388, 1.0 mg/kg, Days 1 and 5): 83% | NCK (net tumor cell kill) (ip P388 leukemia; P388, 1.0 mg/kg, Days 1 and 5): 1.7 log | ILS (ip P388 leukemia; P388, 1.6 mg/kg, Days 1 and 5): 106% | NCK (net tumor cell kill) (ip P388 leukemia; P388, 1.6 mg/kg, Days 1 and 5): 2.6 log | ILS (ip P388 leukemia; P388, 2.7 mg/kg, Days 1 and 5): 128% | NCK (net tumor cell kill) (ip P388 leukemia; P388, 2.7 mg/kg, Days 1 and 5): 3.5 log | ILS (ip P388 leukemia; P388, 4.5 mg/kg, Days 1 and 5): 156% | NCK (net tumor cell kill) (ip P388 leukemia; P388, 4.5 mg/kg, Days 1 and 5): 4.6 log | ILS (ip P388 leukemia; P388, 7.5 mg/kg, Days 1 and 5): 178% | NCK (net tumor cell kill) (ip P388 leukemia; P388, 7.5 mg/kg, Days 1 and 5): 5.5 log | ILS (P388/Mitoxantrone; 1.0 mg/kg): 14% | NCK (net tumor cell kill) (P388/Mitoxantrone; 1.0 mg/kg): 0 log | ILS (P388/Mitoxantrone; 1.6 mg/kg): 29% | NCK (net tumor cell kill) (P388/Mitoxantrone; 1.6 mg/kg): 0 log | ILS (P388/Mitoxantrone; 2.7 mg/kg): 54% | NCK (net tumor cell kill) (P388/Mitoxantrone; 2.7 mg/kg): 1.8 log | ILS (P388/Mitoxantrone; 4.5 mg/kg): 136% | NCK (net tumor cell kill) (P388/Mitoxantrone; 4.5 mg/kg): 6.5 log | ILS (P388/Mitoxantrone; 7.5 mg/kg): 104% | NCK (net tumor cell kill) (P388/Mitoxantrone; 7.5 mg/kg): 5.5 log

CC[C@@]1(O)C(=O)OCc2c1cc1n(c2=O)Cc2cc3c(COCCN(C)C)c(O)ccc3nc2-1 [13S, (20 S) 9-N,N-Dimethylaminoethyloxymethyl-10-hydroxycamptothecin Hydrochloride Salt]
MTD [1]: 42 mg/kg | In Vivo Antitumor Activity ILS (increase in lifespan) (ip L1210 leukemia): 188%

CC[C@@]1(O)C(=O)OCc2c1cc1n(c2=O)Cc2cc3c(C[N+](C)(C)C)c(O)ccc3nc2-1 [3S, (20 S) 9-Trimethylammoniummethyl-10-hydroxycamptothecin Methanesulfonate Salt]
IC50 (L1210 leukemia cells): 150 nM | MTD [1]: 42 mg/kg | In Vivo Antitumor Activity ILS (increase in lifespan) (ip L1210 leukemia): > 200%

CC[C@@]1(O)C(=O)OCc2c1cc1n(c2=O)Cc2cc3c(CNCCO)c(O)ccc3nc2-1 [4S, (20 S) 9-(2'-Hydroxyethylamino) methyl-10-hydroxycamptothecin Acetate Salt]
IC50 (L1210 leukemia cells): 250 nM | MTD [1]: 42 mg/kg | In Vivo Antitumor Activity ILS (increase in lifespan) (ip L1210 leukemia): 75%

COc1cccc2c1C(=O)c1c(O)c3c(c(O)c1C2=O)C[C@@](O)(C(=O)CO)C[C@@H]3O[C@H]1C[C@H](N)[C@H](O)[C@H](C)O1 [Doxorubicin]
ILS (P388/Doxorubicin; 1.2 mg/kg): 19% | NCK (net tumor cell kill) (P388/Doxorubicin; 1.2 mg/kg): 0 log | ILS (P388/Doxorubicin; 1.9 mg/kg): 24% | NCK (net tumor cell kill) (P388/Doxorubicin; 1.9 mg/kg): 0 log | ILS (P388/Doxorubicin; 3.2 mg/kg): 24% | NCK (net tumor cell kill) (P388/Doxorubicin; 3.2 mg/kg): 0 log | ILS (P388/Doxorubicin; 5.4 mg/kg): 19% | NCK (net tumor cell kill) (P388/Doxorubicin; 5.4 mg/kg): 0 log | ILS (P388/Doxorubicin; 9 mg/kg): 14% | NCK (net tumor cell kill) (P388/Doxorubicin; 9 mg/kg): 0 log | sensitivity / resistance of subline (P388/Doxorubicin): expected resistance | ILS (ip P388 leukemia; P388, 1.2 mg/kg, Days 1 and 5): 117% | NCK (net tumor cell kill) (ip P388 leukemia; P388, 1.2 mg/kg, Days 1 and 5): 3.0 log | ILS (ip P388 leukemia; P388, 1.9 mg/kg, Days 1 and 5): 167% | NCK (net tumor cell kill) (ip P388 leukemia; P388, 1.9 mg/kg, Days 1 and 5): 5.1 log | ILS (ip P388 leukemia; P388, 3.2 mg/kg, Days 1 and 5): 172% | NCK (net tumor cell kill) (ip P388 leukemia; P388, 3.2 mg/kg, Days 1 and 5): 5.3 log | ILS (ip P388 leukemia; P388, 5.4 mg/kg, Days 1 and 5): 156% | NCK (net tumor cell kill) (ip P388 leukemia; P388, 5.4 mg/kg, Days 1 and 5): 4.6 log | ILS (ip P388 leukemia; P388, 9 mg/kg, Days 1 and 5): 233% | NCK (net tumor cell kill) (ip P388 leukemia; P388, 9 mg/kg, Days 1 and 5): 6.5 log | ILS (P388/Mitoxantrone; 1.2 mg/kg): 0% | NCK (net tumor cell kill) (P388/Mitoxantrone; 1.2 mg/kg): 0 log | ILS (P388/Mitoxantrone; 1.9 mg/kg): 0% | NCK (net tumor cell kill) (P388/Mitoxantrone; 1.9 mg/kg): 0 log | ILS (P388/Mitoxantrone; 3.2 mg/kg): 0% | NCK (net tumor cell kill) (P388/Mitoxantrone; 3.2 mg/kg): 0 log | ILS (P388/Mitoxantrone; 5.4 mg/kg): 4% | NCK (net tumor cell kill) (P388/Mitoxantrone; 5.4 mg/kg): 0 log | ILS (P388/Mitoxantrone; 9 mg/kg): 7% | NCK (net tumor cell kill) (P388/Mitoxantrone; 9 mg/kg): 0 log | sensitivity / resistance of subline (P388/Mitoxantrone; P388/mitoxantrone in mice): expected resistance

CCC1(O)C(=O)OCc2c1cc1n(c2=O)Cc2cc3c(CN(C)C)c(O)ccc3nc2-1 (racemic) [Compound No. 1RS, (20 R,S)-9-Dimethylaminomethyl-10-hydroxycamptothecin Acetate Salt]
ILS (ip P388 leukemia; ip P388 (10^6 cells), 3.6 mg/kg, Days 1 & 5): 30% | ILS (ip P388 leukemia; ip P388 (10^6 cells), 7.2 mg/kg, Days 1 & 5): 80% | ILS (ip P388 leukemia; ip P388 (10^6 cells), 14 mg/kg, Days 1 & 5): 135% | ILS (ip P388 leukemia; [2]): 165% | Long-term Survivors (tumor-free on Day 45) (ip P388 leukemia; [2]): 1/6

— patent publication US5004758A, “Water soluble camptothecin analogs useful for inhibiting the growth of animal tumor cells” (priority 1988, dated 1991)
